Source: patent US12144795B2, “Cannabidiol compositions having modified cannabinoid profiles” (priority 2018, dated 2024)
Where two headings read alike, the source gives them in different places.

Key:
[1] = Crystallization by single solvent drop grinding, HT-XRPD before and after AAC; assay type: physicochemical
Description: For the grinding experiments, 40 mg cannabidiol was placed in a stainless steel container with 10 μL solvent and two steel beads. The vials were shaken for 1 hour at 30 Hz, after which the solids were collected for XRPD analysis. All of the samples were classified as Form A based on HT-XRPD analysis.

[2] = Liquid diffusion crystallization, solid form by HT-XRPD; assay type: physicochemical
Description: A solution of cannabidiol of about 75 mg/mL was prepared and a layer of anti-solvent was carefully added to the vial. These experiments were performed with water as anti-solvent because of the larger difference in density between solvent and anti-solvent.

[3] = Anti-solvent crystallization, solid form by HT-XRPD of precipitates and evaporated mother liquors, before and after AAC; assay type: physicochemical
Description: For the anti-solvent crystallization experiments, clear solutions of CBD of approximately 60 mg/mL were prepared. Briefly, 1 volume of cannabidiol solution was added to 4 volumes of anti-solvent. If solids were precipitated, they were collected by centrifugation. The solid was analyzed by XRPD after being dried under ambient conditions and following drying under deep vacuum. The mother liquors were allowed to evaporate until completely dry and the remaining solids analyzed as well. All solids were analyzed by XRPD before and after exposure to accelerated aging conditions (40° C./75% RH) for two days.
Solids precipitated immediately from the combination of methanol with water. To facilitate precipitation, the samples were placed at 5° C. for 24 hours. […] When no XRPD record was generated, the field is defined as “Not Applicable” (N/A).

[4] = Stress stability tests of CBD (acidic, alkaline, oxidative, light, heat, humidity; UPLC, LC-MS, PDA-UV); assay type: physicochemical
Description: Cannabidiol samples obtained by Protocol 1 were subjected to acidic, alkaline, and oxidizing conditions in order to achieve a degradation of at least 3% or a change in appearance. The impact of light, heat, and humidity on the stability of the drug substance was investigated. The assay and purity of samples were analyzed by UPLC. The identity of unknown impurities was examined by LC-MS. The peak purity of cannabidiol after exposure to stress conditions was investigated by comparing the PDA-UV spectrum (photodiode array-ultraviolet) of cannabidiol with the spectrum of the unstressed sample and in addition by LC-MS analysis of the cannabidiol peak. The assay of the unstressed sample in FIG. 15A and FIG. 15B was used as a reference to calculate the extent of degradation of CBD under the representative stress conditions: Degradation of CBD=(1−[assay of stressed sample]/[assay unstressed sample])*100% […]
In a 20 ml GC headspace vial, 150 mg of CBD was suspended in 8 mL of 0.1 M sodium hydroxide and heated to T=80° C. for 2 h, 4 h and 6 h, respectively. […]

[5] = Solubility of CBD in crude CBD mother liquor and heptane as a function of temperature (Crystal 16); settings: CBD concentration of ca. 296 mg/ml (3.5 L/kg), crude CBD mother liquor
Description: To determine an appropriate seeding temperature of CBD, a Crystal 16 instrument was employed to measure the solubility in crude CBD mother liquor, a mixture of heptane and process impurities, and pure heptane.

[6] = assay type: physicochemical
[7] = solvent 1,4-Dioxane, anti-solvent Water
[8] = solvent Diethanolamine, anti-solvent Water
[9] = solvent Diethylene glycol, anti-solvent Water
[10] = solvent Dimethyl sulfoxide, anti-solvent Water
[11] = solvent 1,2-Dimethoxyethane, anti-solvent Decane
[12] = solvent Acetone, anti-solvent 2,2,4-Trimethylepentane
[13] = solvent Acetonitrile, anti-solvent Decane
[14] = solvent Ethanol, anti-solvent Decane
[15] = solvent Ethyl acetate, anti-solvent 2,2,4-Trimethylepentane
[16] = solvent Isopropyl acetate, anti-solvent 2,2,4-Trimethylepentane
[17] = solvent Toluene, anti-solvent Decane
[18] = 1 month Accelerated 40° C./75% RH
[19] = 1.5 months Accelerated 40° C./75% RH
[20] = 2 months Accelerated 40° C./75% RH
[21] = 3 months Accelerated 40° C./75% RH
[22] = 5 months Accelerated 40° C./75% RH
[23] = 6 months Accelerated 40° C./75% RH

C=C(C)[C@@H]1CCC(C)=C[C@H]1c1c(O)cc(CCCCC)cc1O [CBD, (1′R,2′R)-5′-methyl-4-pentyl-2′-(prop-1-en-2-yl)-1′,2′,3′,4′-tetrahydro-[1,1′-biphenyl]-2,6-diol]
Effect of accelerated aging conditions ([1]; AAC for two days): did not lead to any physical changes | Form by HT-XRPD analysis ([1]; ground 1 hour at 30 Hz with 10 μL solvent, all samples): Form A | Effect of accelerated aging conditions ([2]; AAC for 2 days): no effect on the solid form | Solid form by HT-XRPD Ambient After AAC [2, 7]: oily | Solid form by HT-XRPD Ambient Before AAC [2, 7]: oily | Solid form by HT-XRPD Vacuum [2, 7]: Oily | Solids after? [2, 7]: No | Solid form by HT-XRPD Vacuum [2, 8]: Oily | Solids after? [2, 8]: Yes | Solid form by HT-XRPD Vacuum [2, 9]: Oily | Solids after? [2, 9]: Yes | Solid form by HT-XRPD Vacuum [2, 10]: Oily | Solids after? [2, 10]: Yes | XRPD of crystalline precipitates ([2]; water as anti-solvent, except 1,4-dioxane, diethylene glycol, DMSO and diethanolamine): indicative of Form A | Solid form by HT-XRPD Ambient After AAC ([3]; Dichloromethane / 2,2,4-Trimethylepentane, AS:S ratio 4:1): A low yield | AS:S ratio 4:1 Precipitation? [3, 11]: No | Form (evap. ML) [3, 11]: Oily | AS:S ratio 4:1 Precipitation? ([3]; solvent 1,2-Dimethoxyethane, anti-solvent Water): No | AS:S ratio 4:1 Precipitation? ([3]; solvent 1,4-Dioxane, anti-solvent 2,2,4-Trimethylepentane): No | AS:S ratio 4:1 Precipitation? [3, 7]: No | AS:S ratio 4:1 Precipitation? ([3]; solvent 2-Butanone, anti-solvent Water): No | AS:S ratio 4:1 Precipitation? [3, 12]: No | Form (evap. ML) [3, 12]: Oily | AS:S ratio 4:1 Precipitation? [3, 13]: No | Form (evap. ML) [3, 13]: Oily | AS:S ratio 4:1 Precipitation? ([3]; solvent Dichloromethane, anti-solvent 2,2,4-Trimethylepentane): No | AS:S ratio 4:1 Precipitation? [3, 14]: No | Form (evap. ML) [3, 14]: Oily | AS:S ratio 4:1 Precipitation? [3, 15]: No | Form (evap. ML) [3, 15]: A low | Form (evap. ML) after AAC [3, 15]: A low | AS:S ratio 4:1 Precipitation? [3, 16]: No | Form (evap. ML) [3, 16]: Oily | AS:S ratio 4:1 Precipitation? ([3]; solvent Methanol, anti-solvent Water): Yes | AS:S ratio 4:1 Precipitation? ([3]; solvent Tetrahydrofuran, anti-solvent Decane): No | AS:S ratio 4:1 Precipitation? ([3]; solvent Tetrahydrofuran, anti-solvent Water): No | AS:S ratio 4:1 Precipitation? [3, 17]: No | Form (evap. ML) [3, 17]: Oily | Appearance after stress ([4]; 0.1 M hydrochloric acid, 80° C., 2 h, 4 h and 6 h): suspension of yellowish melted CBD in a clear colorless aqueous solution | Appearance after stress ([4]; 0.1 M sodium hydroxide, 80° C., 2 h, 4 h and 6 h): suspension of yellowish melted CBD in a violet aqueous solution | Appearance after stress ([4]; 24 h at 75% r.h.): did not change its appearance | Proposed main degradation products(s) ([4]; Acidic, 80° C.): D9-THC | Degradation of CBD ([4]; Acidic, 6 h, 80° C. (0.1 M hydrochloric acid)): 4% | Proposed main degradation products(s) ([4]; Alkaline stress): several isomers of CBQ | Degradation of CBD ([4]; Alkaline stress, stock solution at the time of the LC-MS analysis): > 80% | Proposed main degradation products(s) ([4]; Heat, 100° C. for 24 h): Hydroxy-CBD and Hydroxy-CBQ | Degradation of CBD ([4]; Heat, 24 h, 100° C.): 1% | Proposed main degradation products(s) ([4]; Humidity, 24 h, 24° C.): No prominent degradation product | Degradation of CBD ([4]; Humidity, 24 h, 24° C. (75% r.h.)): 0% | Degradation of CBD ([4]; Light, 24 h 24° C.): 1% | Proposed main degradation products(s) ([4]; Light, 24 h 24° C.): No prominent degradation product | Proposed main degradation products(s) ([4]; Oxidative stress (H2O2)): Hydroxy-CBD (CBD-OH) | Degradation of CBD ([4]; Oxidative, 6 h 80° C. (hydrogen peroxide 0.3% w/w)): 3% | Degradation of CBD ([4]; elevated temperatures lower than 100° C.): no significant degradation | Appearance after stress ([4]; heated to 50° C. and 60° C. for 1 hour): turned slightly yellow but did not change their physical condition | Appearance after stress ([4]; heated to 70° C. for one hour): partially melted | Appearance after stress ([4]; heated to 80° C. or higher): fully melted and exhibited a yellow color | Appearance after stress ([4]; hydrogen peroxide (0.3% w/w), 80° C., 2 h, 4 h and 6 h): suspension of yellowish melted CBD in a clear colorless aqueous solution | Appearance after stress ([4]; irradiated with light 24 h, 24° C.): turned slightly yellow | solubility temperature of CBD [5]: 29-30 °C | Chromatographic Purity: 4-Monobromo-cannabidiol ([6]; 0 month): <0.03% | Chromatographic Purity: Individual unspecified impurity ([6]; 0 month): <0.03% | Chromatographic Purity: Olivetol ([6]; 0 month): <0.03% | Chromatographic Purity: Sum of impurities ([6]; 0 month): <0.05% | Chromatographic Purity: 4-Monobromo-cannabidiol ([6]; 1 month 5° C.): <0.03% | Chromatographic Purity: Individual unspecified impurity ([6]; 1 month 5° C.): <0.03% | Chromatographic Purity: Olivetol ([6]; 1 month 5° C.): <0.03% | Chromatographic Purity: Sum of impurities ([6]; 1 month 5° C.): <0.05% | Chromatographic Purity: 4-Monobromo-cannabidiol ([6]; 1 month 25° C./60% RH): <0.03% | Chromatographic Purity: Individual unspecified impurity ([6]; 1 month 25° C./60% RH): <0.03% | Chromatographic Purity: Olivetol ([6]; 1 month 25° C./60% RH): <0.03% | Chromatographic Purity: Sum of impurities ([6]; 1 month 25° C./60% RH): <0.05% | Chromatographic Purity: 4-Monobromo-cannabidiol [6, 18]: <0.03% | Chromatographic Purity: Individual unspecified impurity [6, 18]: <0.03% | Chromatographic Purity: Olivetol [6, 18]: <0.03% | Chromatographic Purity: Sum of impurities [6, 18]: <0.05% | Chromatographic Purity: 4-Monobromo-cannabidiol ([6]; 1.5 months 25° C./60% RH): <0.03% | Chromatographic Purity: Individual unspecified impurity ([6]; 1.5 months 25° C./60% RH): <0.03% | Chromatographic Purity: Olivetol ([6]; 1.5 months 25° C./60% RH): <0.03% | Chromatographic Purity: Sum of impurities ([6]; 1.5 months 25° C./60% RH): <0.05% | Chromatographic Purity: 4-Monobromo-cannabidiol [6, 19]: <0.03% | Chromatographic Purity: Individual unspecified impurity [6, 19]: <0.03% | Chromatographic Purity: Olivetol [6, 19]: <0.03% | Chromatographic Purity: Sum of impurities [6, 19]: <0.05% | Chromatographic Purity: 4-Monobromo-cannabidiol [6, 20]: <0.03% | Chromatographic Purity: Individual unspecified impurity [6, 20]: <0.03% | Chromatographic Purity: Olivetol [6, 20]: <0.03% | Chromatographic Purity: Sum of impurities [6, 20]: <0.05% | Chromatographic Purity: 4-Monobromo-cannabidiol [6, 21]: <0.03% | Chromatographic Purity: Individual unspecified impurity [6, 21]: <0.03% | Chromatographic Purity: Olivetol [6, 21]: <0.03% | Chromatographic Purity: Sum of impurities [6, 21]: <0.05% | Chromatographic Purity: 4-Monobromo-cannabidiol [6, 22]: <0.03% | Chromatographic Purity: Individual unspecified impurity [6, 22]: <0.03% | Chromatographic Purity: Olivetol [6, 22]: <0.03% | Chromatographic Purity: Sum of impurities [6, 22]: <0.05% | Chromatographic Purity: 4-Monobromo-cannabidiol ([6]; 6 months 25° C./60% RH): <0.03% | Chromatographic Purity: Individual unspecified impurity ([6]; 6 months 25° C./60% RH): <0.03% | Chromatographic Purity: Olivetol ([6]; 6 months 25° C./60% RH): <0.03% | Chromatographic Purity: Sum of impurities ([6]; 6 months 25° C./60% RH): <0.05% | Chromatographic Purity: 4-Monobromo-cannabidiol [6, 23]: <0.03% | Chromatographic Purity: Individual unspecified impurity [6, 23]: <0.03% | Chromatographic Purity: Olivetol [6, 23]: <0.03% | Chromatographic Purity: Sum of impurities [6, 23]: <0.05%
